Drawing on ChEMBL document CHEMBL1130654, “New phthalimide derivatives with potent analgesic activity: II” (1998), this text covers ID50, inhibition in vivo and Time of licking for nine molecules.

Holding throughout (assay type): functional
Experiment [1] concerns Mus musculus. Briefly: Inhibition of acetic acid induced writhing in mice at dose of 3.12 mg/kg. On the technique in general: Writhing tests count abdominal constrictions after an irritant is injected.
For experiment [2], the system named is Mus musculus. In words: Inhibition of acetic acid induced writhing in mice at dose of 1.56 mg/kg.
In experiment [3] the test system is Mus musculus. In words: Inhibition of acetic acid induced writhing in mice at dose of 6.25 mg/kg.
Experiment [4] concerns Mus musculus. In words: Inhibition of acetic acid induced writhing in mice at dose of 25.0 mg/kg.
The test system of experiment [5] is Mus musculus. Briefly: Inhibition of acetic acid induced writhing in mice at dose of 12.5 mg/kg.
The subject of experiment [6] is Mus musculus. In words: Compound was tested for hyperalgesia in mice induced by formalin expressed as time of licking at late phase(up to 30 min) at dose 25 mg/kg.
In experiment [7] the test system is Mus musculus. In words: Compound was tested for hyperalgesia in mice induced by formalin expressed as time of licking at initial phase(up to 5 min)at dose 25 mg/kg.
The subject of experiment [8] is Mus musculus. Briefly: Inhibition of acetic acid induced writhing in mice at dose of 25 mg/kg.
Experiment [9] deals with Mus musculus. In words: Compound was tested for hyperalgesia in mice induced by formalin expressed as time of licking at late phase(up to 30 min) at 400 mg/kg.
In experiment [10] the test system is Mus musculus. In words: Compound was tested for hyperalgesia in mice induced by formalin expressed as time of licking at initial phase(up to 5 min) at 400 mg/kg.
Experiment [11] has as its system Mus musculus. In words: Inhibition of acetic acid induced writhing in mice at dose of 100 mg/kg.
Experiment [12] deals with Mus musculus. In words: Inhibition of acetic acid induced writhing in mice at dose of 200 mg/kg.
In experiment [13] the test system is Mus musculus. In words: Inhibition of acetic acid induced writhing in mice at dose of 50 mg/kg.
For experiment [14], the system named is Mus musculus. Briefly: Compound was tested for hyperalgesia in mice induced by formalin expressed as time of licking at initial phase(up to 5 min) at dose 10 mg/kg.
For experiment [15], the system named is Mus musculus. Briefly: Compound was tested for hyperalgesia in mice induced by formalin expressed as time of licking at late phase(up to 30 min) at dose 10 mg/kg.

Broadly, the inhibition in vivo is the change of the read-out against control, counted positive when it falls. High values mean strong suppression, low ones little suppression. In the experiment on Mus musculus [1], `O=C1c2ccccc2C(=O)N1Cc1nc(-c2ccc([N+](=O)[O-])cc2)no1` gave an ID50 of 4.1 and an inhibition in vivo at 3.12 mg/kg of 47.4%. In the experiment with Mus musculus [2], this molecule yielded an inhibition in vivo at 1.56 mg/kg of 29.8%. This molecule gave an inhibition in vivo at 6.25 mg/kg in the experiment with Mus musculus [3] of 62.9%.
In the experiment on Mus musculus [1], `COc1ccc(-c2noc(CN3C(=O)c4ccccc4C3=O)n2)cc1` yielded an inhibition in vivo at 3.12 mg/kg of 20.7%. In addition, the inhibition in vivo at 6.25 mg/kg with Mus musculus [3] is 41.9%. The molecule also had an inhibition in vivo at 25 mg/kg in the experiment on Mus musculus [4] of 62.6%. Besides, in the experiment on Mus musculus [5], the ID50 is 14.9 and the inhibition in vivo at 12.5 mg/kg is 53.3%.
In the experiment on Mus musculus [1], `Cc1ccccc1-c1noc(CN2C(=O)c3ccccc3C2=O)n1` returned an ID50 of 3.1 and an inhibition in vivo at 3.12 mg/kg of 76.5%. Moreover, at 1.56 mg/kg the inhibition in vivo in the experiment with Mus musculus [2] was 12.1%. Further, in the experiment on Mus musculus [3], testing at 6.25 mg/kg gave an inhibition in vivo of 80.5%.
In the experiment with Mus musculus [1], `Cc1cccc(-c2noc(CN3C(=O)c4ccccc4C3=O)n2)c1` gave an ID50 of 2.9 and an inhibition in vivo at 3.12 mg/kg of 67.1%. For the same molecule, at 1.56 mg/kg the inhibition in vivo in the experiment on Mus musculus [2] was 25.5%. In the experiment with Mus musculus [3], the inhibition in vivo at 6.25 mg/kg was 79.2%.
In turn, `O=C1c2ccccc2C(=O)N1Cc1nc(-c2ccccc2)no1` came in with an ID50 with Mus musculus [1] of 2.2. Moreover, testing at 3.12 mg/kg with Mus musculus [1] gave an inhibition in vivo of 67.1%. Moreover, in the experiment on Mus musculus [2], the inhibition in vivo at 1.56 mg/kg stood at 38.9%. The same molecule yielded an inhibition in vivo at 6.25 mg/kg in the experiment on Mus musculus [3] of 73.8%. The figures for the Time of licking with Mus musculus [6] and in the experiment with Mus musculus [7] were 143 s and 84 s, respectively.
Molecule `O=C1c2ccccc2C(=O)N1Cc1nc(-c2ccc(Cl)cc2)no1` registered an inhibition in vivo at 6.25 mg/kg with Mus musculus [3] of 16.3%. In addition, the inhibition in vivo at 25 mg/kg in the experiment with Mus musculus [8] is 59.6%. In the experiment with Mus musculus [5], this molecule gave an ID50 of 20.3 and an inhibition in vivo at 12.5 mg/kg of 35.1%.
`Cc1ccc(-c2noc(CN3C(=O)c4ccccc4C3=O)n2)cc1`: in the experiment on Mus musculus [1], the inhibition in vivo at 3.12 mg/kg stood at 16.1%. In the experiment with Mus musculus [3], this molecule displayed an ID50 of 7.2 and an inhibition in vivo at 6.25 mg/kg of 62.4%. This molecule also registered an inhibition in vivo at 12.5 mg/kg in the experiment on Mus musculus [5] of 72.5%.
In the case of `CC(=O)Oc1ccccc1C(=O)O` [ASPIRIN], in the experiment with Mus musculus [9], the Time of licking worked out at 0 s. In addition, the Time of licking with Mus musculus [10] was 48 s. In the experiment on Mus musculus [11], this molecule returned an ID50 of 80.8 and an inhibition in vivo at 100 mg/kg of 61.7%. The molecule also displayed an inhibition in vivo at 200 mg/kg in the experiment on Mus musculus [12] of 74%. At 50 mg/kg the inhibition in vivo in the experiment on Mus musculus [13] was 38.2%.
As to `CN1CC[C@]23c4c5ccc(O)c4O[C@H]2[C@@H](O)C=C[C@H]3[C@H]1C5` [MORPHINE], the Time of licking in the experiment with Mus musculus [14] came to 41 s; in the experiment with Mus musculus [15], 0 s.
